Here are results for 9 molecules from ChEMBL document CHEMBL1144881, “3,6-dibromocarbazole piperazine derivatives of 2-propanol as first inhibitors of cytochrome c release via Bax channel modulation” (J Med Chem, 2003).

The structures appear in SMILES notation.

Test [1] has as its system HeLa. Kind of test: In vitro inhibition of cytochrome C release in isolated mitochondria by the compound was determined. Type of test: functional, Homo sapiens. Further details: concentration or dose not given beside the values.
The target of test [2] is Apoptosis regulator BAX (Homo sapiens) (UniProt Q07812). Kind of test: cells.
For test [3], the system named is HeLa. Kind of test: cells. Type of test: functional. The following applies: Homo sapiens.
The subject of test [4] is HeLa. Kind of test: cells. Type of test: functional. The following applies: Homo sapiens. This is another data set of the same source.
Description: In vitro inhibition of cytochrome C release in isolated mitochondria by the compound at a concentration of 10 uM was determined
For test [5], the system named is HeLa. Kind of test: cells. Type of test: functional. Particulars: Homo sapiens. This is another data set of the same source.
Description: In vitro inhibition of cytochrome C release in isolated mitochondria by the compound at a concentration of 20 uM was determined

With `OC(CN1CCN(Cc2ccc(F)cc2)CC1)Cn1c2ccc(Br)cc2c2cc(Br)ccc21` (stereo not given), the Inhibition in test [1] turned out to be 65%. The same molecule gave an IC50 in test [2] of 480 nM.
The matching figures for `OC(CN1CCN(c2ccc(F)cc2)CC1)Cn1c2ccc(Br)cc2c2cc(Br)ccc21` (stereo not given): 15% and 2380 nM.
`FC(F)(CN1CCNCC1)Cn1c2ccc(Br)cc2c2cc(Br)ccc21` yielded an inhibition at 5 µM in test [3] of 61%. In test [4], at 10 µM the inhibition was 83%. Also, the inhibition at 20 µM in test [5] is 96%. In addition, half-maximal inhibition in test [2] (IC50) required 680 nM.
In turn, `O=C(CN1CCNCC1)Cn1c2ccc(Br)cc2c2cc(Br)ccc21` showed an Inhibition in test [1] of 71%. The molecule also gave an IC50 in test [2] of 290 nM.
For the molecule `OC(CN1CCN(CCN2CCOCC2)CC1)Cn1c2ccc(Br)cc2c2cc(Br)ccc21` (stereo not given), the inhibition at 5 µM in test [3] amounted to 21%. For the same molecule, the inhibition at 10 µM in test [4] is 74%. At 20 µM the inhibition in test [5] was 95%. For the same molecule, the IC50 in test [2] was determined as 470 nM.
For the molecule `NC(CN1CCNCC1)Cn1c2ccc(Br)cc2c2cc(Br)ccc21` (stereo not given), in test [1], the Inhibition was determined as 71%. The molecule also yielded an IC50 in test [2] of 960 nM.
In turn, `OC(CN1CCNCC1)Cn1c2ccc(Br)cc2c2cc(Br)ccc21` (stereo not given) had an inhibition at 5 µM in test [3] of 77%. Further, at 10 µM the inhibition in test [4] was 94%. Moreover, in test [5], 20 µM produced 99% inhibition.
Molecule `O=C(Nc1ccc(F)cc1)N1CCN(CC(O)Cn2c3ccc(Br)cc3c3cc(Br)ccc32)CC1` (stereo not given) gave an Inhibition in test [1] of 15%. Further, the IC50 in test [2] was 1270 nM.
On to `COc1ccc(CN2CCN(CC(O)Cn3c4ccc(Br)cc4c4cc(Br)ccc43)CC2)cc1` (stereo not given), for which, in test [3], the inhibition at 5 µM came out at 61%. This molecule also displayed an inhibition at 10 µM in test [4] of 82%. Besides, in test [5], the inhibition at 20 µM was 99%. This molecule also came in with an IC50 in test [2] of 370 nM.
